In brackets after ≈: the same amount, converted by molar mass. Activity calls are given as the source filed them. The calls are words filed in the database; no cut-off is given here.
Tests used:
Enterococcus faecium [1] = experiment: Antimicrobial activity against Enterococcus faecium QF31 harboring erythromycin resistance rRNA methylase B and chloramphenicol-florfenicol resistance methylase assessed as inhibition of visible growth of bacteria incubated for 20 hrs by broth microdilution method; format: functional
Enterococcus faecalis [2] = experiment: microbe, parasite or virus in culture; format: functional; conditions: SF23-1, time 20 hrs
Description: Antimicrobial activity against Enterococcus faecalis SF23-1 harboring erythromycin-resistance rRNA methylase B, tetracycline efflux protein L and chloramphenicol-florfenicol resistance methylase assessed as inhibition of visible growth of bacteria incubated for 20 hrs by broth microdilution method

Staphylococcus aureus [3] = experiment: Antimicrobial activity against Staphylococcus aureus YZSA-15 harboring erythromycin resistance rRNA methylase C and vancomycin resistance locus assessed as inhibition of visible growth of bacteria incubated for 20 hrs by broth microdilution method; format: functional
Staphylococcus aureus [4] = experiment: Antimicrobial activity against Staphylococcus aureus YZSA-21 harboring erythromycin resistance rRNA methylase C assessed as inhibition of visible growth of bacteria incubated for 20 hrs by broth microdilution method; format: functional
Enterococcus faecium [5] = experiment: Antimicrobial activity against Enterococcus faecium HFY01 assessed as inhibition of visible growth of bacteria incubated for 20 hrs by broth microdilution method; format: functional
Enterococcus faecalis [6] = experiment: Antimicrobial activity against Enterococcus faecalis ES01 harboring erythromycin-resistance rRNA methylase B and vanB-type vancomycin-resistance locus assessed as inhibition of visible growth of bacteria incubated for 20 hrs by broth microdilution method; format: functional
Enterococcus faecalis [7] = experiment: Antimicrobial activity against Enterococcus faecalis J2 harboring erythromycin-resistance rRNA methylase B and oxazolidinone phenicol transferable resistance gene assessed as inhibition of visible growth of bacteria incubated for 20 hrs by broth microdilution method; format: functional
Streptococcus suis = experiment: microbe, parasite or virus in culture; format: functional; conditions: SH0918, time 20 hrs
Description: Antimicrobial activity against Streptococcus suis SH0918 harboring erythromycin-resistance rRNA methylase B, tetracycline efflux protein O and oxazolidinone phenicol transferable resistance gene assessed as inhibition of visible growth of bacteria incubated for 20 hrs by broth microdilution method

Streptococcus pyogenes = experiment: Antimicrobial activity against Streptococcus pyogenes DL02 harboring erythromycin-resistance rRNA methylase B assessed as inhibition of visible growth of bacteria incubated for 20 hrs by broth microdilution method; format: functional
Streptococcus agalactiae = experiment: Antimicrobial activity against Streptococcus agalactiae DL03 harboring erythromycin-resistance rRNA methylase B assessed as inhibition of visible growth of bacteria incubated for 20 hrs by broth microdilution method; format: functional
Salmonella enteritidis = experiment: Antimicrobial activity against Salmonella enteritis S1 assessed as inhibition of visible growth of bacteria incubated for 20 hrs by broth microdilution method; format: functional, Salmonella enterica subsp. enterica serovar Enteritidis; conditions: Salmonella enterica
Klebsiella pneumoniae = experiment: Antimicrobial activity against Klebsiella pneumoniae 9-1 assessed as inhibition of visible growth of bacteria incubated for 20 hrs by broth microdilution method; format: functional
Acinetobacter baumannii = experiment: Antimicrobial activity against Acinetobacter baumannii AB11 assessed as inhibition of visible growth of bacteria incubated for 20 hrs by broth microdilution method; format: functional
Staphylococcus aureus [8] = experiment: Bactericidal activity against Staphylococcus aureus ATCC 29213 assessed as decrease in bacterial number measured within 12 hrs by time-kill kinetics assay; format: functional, organism-based
Staphylococcus aureus [9] = experiment: Bactericidal activity against Staphylococcus aureus ATCC 29213 assessed as bacterial eradication at 4 times of MIC measured after 24 hrs by time-kill kinetics assay relative to control; format: functional
Staphylococcus aureus [10] = experiment: Drug resistance, ratio of MIC for Staphylococcus aureus ATCC 29213 measured after 28 days to MIC for Staphylococcus aureus ATCC 29213 measured after 20 hrs; format: functional
[11] = Cytotoxicity against human HEp-2 cells assessed as cell viability at 16 times of MIC incubated for 48 hrs by CCK8 assay (reference value: 100 %); format: toxicity, cell-based; conditions: read-out: Activity
[12] = Cytotoxicity against human HEp-2 cells assessed as cell viability at 8 times of MIC incubated for 48 hrs by CCK8 assay (reference value: 100 %); format: toxicity, cell-based; conditions: read-out: Activity
[13] = Cytotoxicity against human HEp-2 cells assessed as cell viability at 4 times of MIC incubated for 48 hrs by CCK8 assay (reference value: 100 %); format: toxicity, cell-based; conditions: read-out: Activity
[14] = Cytotoxicity against human HEp-2 cells assessed as cell viability at 1 time of MIC incubated for 48 hrs by CCK8 assay (reference value: 100 %); format: toxicity, cell-based; conditions: read-out: Activity
[15] = Cytotoxicity against human Caco-2 cells assessed as cell viability at 4 times of MIC incubated for 48 hrs by CCK8 assay (reference value: 99.54 %); format: toxicity, cell-based; conditions: read-out: Activity
[16] = Cytotoxicity against human Caco-2 cells assessed as cell viability at 1 time of MIC incubated for 48 hrs by CCK8 assay (reference value: 99.54 %); format: toxicity, cell-based; conditions: read-out: Activity
[17] = Hemolytic activity in Kunming mouse erythrocytes assessed as hemolysis at 16 times of MIC measured after 1 hrs by absorbance based assay relative to control; format: toxicity, cell-based, Erythrocyte; conditions: read-out: Activity
[18] = Hemolytic activity in Kunming mouse erythrocytes assessed as hemolysis at 4 times of MIC measured after 1 hrs by absorbance based assay relative to control; format: toxicity, cell-based, Erythrocyte; conditions: read-out: Activity
[19] = Hemolytic activity in Kunming mouse erythrocytes assessed as hemolysis at 1 time of MIC measured after 1 hrs by absorbance based assay relative to control; format: toxicity, cell-based, Erythrocyte; conditions: read-out: Activity
[20] = Acute toxicity in ICR mouse model assessed as change in body weight at 25 to 100 mg/kg, IG administered for 7 days; format: organism-based; conditions: in vivo, po, 168 h, dose 25-100 mg/kg, time 7 day
[21] = Acute toxicity in ICR mouse model assessed as change in liver pathology at 25 to 100 mg/kg, IG administered for 7 days by H and E staining based analysis; format: organism-based; conditions: in vivo, po, 168 h, dose 25-100 mg/kg, time 7 day
[22] = Acute toxicity in ICR mouse model assessed as change in lung pathology at 25 to 100 mg/kg, IG administered for 7 days by H and E staining based analysis; format: organism-based; conditions: in vivo, po, 168 h, dose 25-100 mg/kg, time 7 day
[23] = Acute toxicity in ICR mouse model assessed as change in kidney pathology at 25 to 100 mg/kg, IG administered for 7 days by H and E staining based analysis; format: organism-based; conditions: in vivo, po, 168 h, dose 25-100 mg/kg, time 7 day
Cell membrane = experiment: Disruption of cell membrane integrity in Staphylococcus aureus ATCC 29213 assessed as appearance of rupture surface at 0.5 to 2 times of MIC by scanning electron microscopic analysis; format: subcellular
Staphylococcus aureus [24] = experiment: Antibiofilm activity against Staphylococcus aureus ATCC 29213 assessed as eradication of preformed biofilm measured after 72 hrs by crystal violet staining based analysis; format: functional, organism-based
Staphylococcus aureus [25] = experiment: Disruption of preformed biofilm in Staphylococcus aureus ATCC 29213 assessed as increase in red fluorescence at 0.5 to 2 times of MIC measured after 72 hrs by SYTO-9/PI staining based CLSM imaging analysis; format: functional, organism-based
[26] = Metabolic stability in human liver microsomes assessed as half-life at 100 uM preincubated for 5 mins followed by NADPH addition and measured upto 60 mins by LC-MS/MS analysis; format: ADME, Microsome; conditions: time < 65 min
[27] = Metabolic stability in rat liver microsomes assessed as half-life at 100 uM preincubated for 5 mins followed by NADPH addition and measured upto 60 mins by LC-MS/MS analysis; format: ADME, Microsome; conditions: time < 65 min
[28] = Metabolic stability in human liver microsomes assessed as intrinsic clearance at 100 uM preincubated for 5 mins followed by NADPH addition and measured upto 60 mins by LC-MS/MS analysis; format: ADME, Microsome; conditions: time < 65 min, read-out: CLH
[29] = Metabolic stability in mouse liver microsomes assessed as intrinsic clearance at 100 uM preincubated for 5 mins followed by NADPH addition and measured upto 60 mins by LC-MS/MS analysis; format: ADME, Microsome; conditions: time < 65 min, read-out: CLH
Staphylococcus aureus [30] = experiment: Antibacterial activity against methicillin-resistant Staphylococcus aureus YZSA-24 infected in cyclophosphamide-induced neutrophil depleted female ICR mouse model of skin infection assessed as log reduction in bacterial load at 2.5 %, TOP preadministered with cyclophosphamide for 5 days followed by bacterial administration and measured after 25 hrs of compound administration relative to […] group; format: functional

Compound: CC1C/C(=C\c2ccc(-c3ccc(Cl)c(C(F)(F)F)c3)s2)c2nc3ccccc3c(C(=O)O)c2C1 (racemic)
- MIC (Enterococcus faecium [1]): 2 µg/mL (≈ 3.89 µM)
- MIC (Enterococcus faecalis [2]): 1 µg/mL (≈ 1.95 µM)
- MIC (Staphylococcus aureus [3]): 1 µg/mL (≈ 1.95 µM)
- MIC (Staphylococcus aureus [4]): 1 µg/mL (≈ 1.95 µM)
- MIC (Enterococcus faecium [5]): 2 µg/mL (≈ 3.89 µM)
- MIC (Enterococcus faecalis [6]): 2 µg/mL (≈ 3.89 µM)
- MIC (Enterococcus faecalis [7]): 2 µg/mL (≈ 3.89 µM)
- MIC (Streptococcus suis): 16 µg/mL (≈ 31.1 µM)
- MIC (Streptococcus pyogenes): 16 µg/mL (≈ 31.1 µM)
- MIC (Streptococcus agalactiae): 32 µg/mL (≈ 62.3 µM)
- MIC (Salmonella enteritidis): 128 µg/mL (≈ 249 µM)
- MIC (Klebsiella pneumoniae): > 128 µg/mL
- MIC (Acinetobacter baumannii): > 128 µg/mL
- Activity (Staphylococcus aureus [8]): Dose-dependent-effect
- Activity (Staphylococcus aureus [9]): 100%
- Ratio (Staphylococcus aureus [10]): 2
- viability at 48 h, 16 times of MIC [11]: 44.5%
- viability at 48 h, 8 times of MIC [12]: 82.5%
- viability at 48 h, 4 times of MIC [13]: 91.4%
- viability at 48 h, 1 time of MIC [14]: 96.9%
- viability at 48 h, 4 times of MIC [15]: 92.9%
- viability at 48 h, 1 time of MIC [16]: 96.6%
- hemolysis at 1 h, 16 times of MIC [17]: 74%
- hemolysis at 1 h, 4 times of MIC [18]: 0.65%
- hemolysis at 1 h, 1 time of MIC [19]: 0%
- Activity [20]: Non-toxic
- Activity [21]: Non-toxic
- Activity [22]: Non-toxic
- Activity [23]: Non-toxic
- Activity (Cell membrane): Active
- Activity (Staphylococcus aureus [24]): Dose-dependent-effect
- Activity (Staphylococcus aureus [25]): Active
- half-life at 100 µM [26]: > 3.08 h
- half-life at 100 µM [27]: > 3.08 h
- microsomal CLint at 100 µM [28]: < 7.5 µL/min/mg
- microsomal CLint at 100 µM [29]: < 7.5 µL/min/mg
- Activity (Staphylococcus aureus [30]): 2.3 log10CFU/ml

Reference: ChEMBL document CHEMBL6078677, “Discovery and optimization of tetrahydroacridine derivatives as a novel class of antibiotics against multidrug-resistant Gram-positive pathogens by targeting type I signal peptidase and disrupting bacterial membrane” (Eur J Med Chem, 2025)
